Measurements from publication PMC6925188, “PBRM1 acts as a p53 lysine-acetylation reader to suppress renal tumor growth” (Nature Communications, 2019).

How the values were obtained:
[1] = tested on: ACHN cells; assay: Cell cycle analysis, ACHN shRNA knockdown cells; type: cell-based; parameters: Sub-G1: unit not given here; conditions: 50 μM
Protocol: Lysates were analyzed via immunoblots. f, g, h. ACHN control, p53 and p21 shRNA knockdown cells were harvested for […]
Representative data is shown i n g. […] Source data are provided as a Source

[2] = tested on: Ren-01 PBRM1 KO cells; assay: Immunoblot of p53 targets, Ren-01 PBRM1 KO cells; type: cell-based; conditions: 50 μM etoposide
Protocol: The band intensity of indicated protein was measured with Bio-rad Image Lab 4.1, and the relative ratios were calculated over the signal intensity of Vinculin in the corresponding lanes. c–e. Nude mice xenograft analyses were performed with Ren-01 PBRM1 KO cells expressing GFP (left flank) or PBRM1 (right flank). Representative photographs of a mouse (c, top) and tumors (c, bottom). Tumors were excised and weighed, and data are presented as mean ± SEM (d). p-values were calculated using the paired two-tailed Student’s t-test. Tumors were stained for PBRM1 and p21 expression via IHC (e). Scale bar: 200 μm. f–h Nude mice xenograft analyses were performed with Ren-01 PBRM1 KO cells expressing wild-type PBRM1 (left flank) or the BD4* mutant PBRM1 (right flank). Tumors were excised and weighed, and data are presented as mean ± SEM (g). p-values were calculated using the paired two-tailed Student’s t-test. Representative photographs of a mouse (f, top) and tumors (f, bottom). Tumors were stained for PBRM1 and p21 expression via IHC analysis (h). Scale bar: 200 μm. Source data are provided as a Source Data file.
After washing with ice-cold PBS, cells were scraped on ice and centrifuged at 10,000 × g for 1 min at 4 °C. […]

## COc1cc([C@@H]2c3cc4c(cc3[C@@H](O[C@@H]3O[C@@H]5CO[C@@H](C)O[C@H]5[C@H](O)[C@H]3O)[C@H]3COC(=O)[C@H]23)OCO4)cc(OC)c1O [Etoposide]
[1]; ACHN-sh-PBRM1#1, assay 1
  G0/G1: 10.9
  G2/M: 66.9
  S: 15.8
  Sub-G1: 5.5
[1]; ACHN-sh-PBRM1#1, assay 2
  G0/G1: 15.3
  G2/M: 36.8
  S: 33.9
  Sub-G1: 12.3
[1]; ACHN-sh-PBRM1#1, assay 3
  G0/G1: 16.9
  G2/M: 39.4
  S: 35.3
  Sub-G1: 6.8
[1]; ACHN-sh-PBRM1#2, assay 1
  G0/G1: 50.7
  G2/M: 29.4
  S: 17.3
  Sub-G1: 1.2
[1]; ACHN-sh-PBRM1#2, assay 2
  G0/G1: 45.9
  G2/M: 20.7
  S: 26.7
  Sub-G1: 5
[1]; ACHN-sh-PBRM1#2, assay 3
  G0/G1: 48.7
  G2/M: 22.6
  S: 24.8
  Sub-G1: 1.6
[1]; ACHN-sh-SCR, assay 1
  G0/G1: 54.8
  G2/M: 26.5
  S: 16.1
  Sub-G1: 1.5
[1]; ACHN-sh-SCR, assay 2
  G0/G1: 51.3
  G2/M: 21.3
  S: 25.2
  Sub-G1: 1.4
[1]; ACHN-sh-SCR, assay 3
  G0/G1: 43.6
  G2/M: 27
  S: 25.3
  Sub-G1: 2.1
[1]; ACHN-sh-p21#1, assay 1
  G0/G1: 40.5
  G2/M: 38.3
  S: 18.7
  Sub-G1: 1.3
[1]; ACHN-sh-p21#1, assay 2
  G0/G1: 47.7
  G2/M: 23.1
  S: 27.2
  Sub-G1: 1
[1]; ACHN-sh-p21#1, assay 3
  G0/G1: 48.6
  G2/M: 22.6
  S: 26
  Sub-G1: 0.8
[1]; ACHN-sh-p21#2, assay 1
  G0/G1: 14.3
  G2/M: 65.7
  S: 15.1
  Sub-G1: 4
[1]; ACHN-sh-p21#2, assay 2
  G0/G1: 11.9
  G2/M: 48.4
  S: 31.1
  Sub-G1: 6.9
[1]; ACHN-sh-p21#2, assay 3
  G0/G1: 14.7
  G2/M: 42.4
  S: 35.8
  Sub-G1: 5.3
[1]; ACHN-sh-p53, assay 1
  G0/G1: 6.3
  G2/M: 68.3
  S: 16.5
  Sub-G1: 6.2
[1]; ACHN-sh-p53, assay 2
  G0/G1: 11.6
  G2/M: 30
  S: 34.2
  Sub-G1: 20.3
[1]; ACHN-sh-p53, assay 3
  G0/G1: 10.6
  G2/M: 39
  S: 34.6
  Sub-G1: 11.3
[2]
  expression of p53 downstream targets after DNA damage, wild-type vs BD4* PBRM1: rescued by wild-type but not BD4* mutant PBRM1
